Results from patent US20090062369A1, “USE OF SECRETORY PHOSPHOLIPASE A2 (SPLA2) INHIBITORS TO DECREASE SPLA2 LEVELS” (priority 2007, published 2009).

Tested on: serum sPLA2
Test: Effect of twice-a-day oral A-002 on serum sPLA2 levels in subjects with stable coronary artery disease (Example 6)
Type: in vivo, human
Procedure: The protocol for preparing standard curve, test, and quality control samples for use in the assay disclosed herein is set forth in Example 5. Samples are prepared according to this protocol, then loaded in duplicate onto a plate (Cayman catalog no. 485002 or equivalent) that has been pre-coated with a monoclonal sPLA2 antibody (“capture antibody”) that specifically binds sPLA2. In certain embodiments, the capture antibody may interact with a specific form of sPLA2, such as for example sPLA2 type IIA.
sPLA2 acetylcholinesterase:Fab′ conjugate (AChE:Fab′) (“conjugate”) (Cayman catalog no. 485000 or equivalent) is reconstituted in EIA buffer (Cayman catalog no. 400060 or equivalent). Cayman EIA buffer is 1M phosphate, pH 7.0, 1% BSA, 4M NaCl, 10 mM EDTA, and 0.1% sodium azide. Reconstituted conjugate is added to each well of the plate. The conjugate binds a different sPLA2 epitope than the capture antibody, allowing the capture antibody and the conjugate to form a “sandwich” that is immobilized on the plate. Excess reagents are washed away, and the plate is covered and incubated overnight at 2-8° C.
Prior to development, the wells are washed five to six times with wash buffer (Cayman catalog no. 400062 or equivalent). To develop the plate, Ellman's Reagent (Cayman catalog no. 400050 or equivalent) is reconstituted in water and added to each well according to manufacturer instructions. The reconstituted Ellman's Reagent must be used the same day it is prepared because it is unstable. Ellman's Reagent contains an AChE substrate. Specifically, Ellman's Reagent contains acetylthiocholine and 5,5′-dithio-bis-(2-nitrobenzoic acid). Hydrolysis of acetylthiocholine by acetylcholinesterase produces thiocholine, which reacts with 5,5′-dithio-bis-(2-nitrobenzoic acid) to produce 5-thio-2-nitrobenzoic acid. 5-thio-2-nitrobenzoic acid has a strong absorbance at 412 nm. The intensity of absorbance at this wavelength is directly proportional to the concentration of bound conjugate, which is in turn is directly proportional to the concentration of sPLA2 present (Absorbance a [AChE:Fab′ conjugate] α [sPLA2]). During the development step, the plate is shaken, preferably in the dark. In certain embodiments the development time for the assay is 0.5 to 3 hours, preferably 1 to 1.5 hours. At the end of the development period, the high sPLA2 standards should have greater yellow color development than the zero standards. Absorbance of each well is measured at 400-420 nm using a micro-well plate reader. In certain embodiments, absorbance is measured at about 405 nm.
Absorbance readings for duplicate wells are averaged, and the relative standard deviation and % CV are calculated. Standard curve data are used to generate a four parameter curve, and quality control and test samples are measured against the appropriate standard curve (i.e., the standard curve with the same serum content). In order for a test to be considered valid, variation between duplicate wells should be no more than about 25%, and negative controls (blanks) for each standard curve should have a mean absorbance of less than about 0.3.
The method disclosed herein for measuring sPLA2 levels in serum was utilized to determine the effect of administering certain sPLA2 inhibitors on sPLA2 levels in 84 human subjects. The subjects included 24 subjects with diabetes, 32 subjects with metabolic syndrome, and 75 subjects receiving statin treatment. Subjects were administered the sPLA2 inhibitor A-002, a prodrug form of A-001, twice a day at varying dosages from 50 to 500 mg. The structures of A-002and A-001 are set forth below. At two weeks and four weeks after the first administration, sPLA2 levels were measured and compared to pre-administration baseline levels.
84 subjects with stable coronary artery disease were randomized to receive placebo or A-002 via oral administration twice a day over a four week administration period. […]

[1] = 100 mg, statin subgroup of ITT population
[2] = 250 mg, diabetes subgroup of ITT population
[3] = 250 mg, non-diabetes subgroup of ITT population
[4] = 250 mg, statin subgroup of ITT population
[5] = 500 mg, diabetes subgroup of ITT population
[6] = 500 mg, non-diabetes subgroup of ITT population

CCc1c(C(=O)C(N)=O)c2c(OCC(=O)OC)cccc2n1Cc1ccccc1 [A-002, [[3-(2-Amino-1,2-dioxoethyl)-2-ethyl-1-(phenylmethyl)-1H-indol-4-yl]oxy]acetic acid methyl ester]
sPLA2 Change from baseline at week 4, Range [1]: -5.70 to 0.00 ng/mL | sPLA2 level, Baseline, Mean [1]: 2.72 ng/mL | sPLA2 level, Baseline, Median [1]: 2.65 ng/mL | sPLA2 level, Baseline, Range [1]: 0.05 to 6.00 ng/mL | sPLA2 level, Week 2, Mean [1]: 0.66 ng/mL | sPLA2 level, Week 2, Median [1]: 0.40 ng/mL | sPLA2 level, Week 2, Range [1]: 0.05 to 2.90 ng/mL | sPLA2 level, Week 4, Mean [1]: 0.44 ng/mL | sPLA2 level, Week 4, Median [1]: 0.40 ng/mL | sPLA2 level, Week 4, Range [1]: 0.05 to 1.00 ng/mL | sPLA2 Change from baseline at week 2, Mean (250 mg, ITT population): -2.02 ng/mL | sPLA2 Change from baseline at week 2, Median (250 mg, ITT population): -1.90 ng/mL | sPLA2 Change from baseline at week 2, Range (250 mg, ITT population): -4.20 to -0.20 ng/mL | sPLA2 Change from baseline at week 4, Mean (250 mg, ITT population): -2.13 ng/mL | sPLA2 Change from baseline at week 4, Median (250 mg, ITT population): -2.20 ng/mL | sPLA2 Change from baseline at week 4, Range (250 mg, ITT population): -4.20 to 0.20 ng/mL | sPLA2 level, Baseline, Mean (250 mg, ITT population): 2.88 ng/mL | sPLA2 level, Baseline, Median (250 mg, ITT population): 2.40 ng/mL | sPLA2 level, Baseline, Range (250 mg, ITT population): 1.30 to 5.20 ng/mL | sPLA2 level, Week 2, Mean (250 mg, ITT population): 0.73 ng/mL | sPLA2 level, Week 2, Median (250 mg, ITT population): 0.35 ng/mL | sPLA2 level, Week 2, Range (250 mg, ITT population): 0.05 to 4.40 ng/mL | sPLA2 level, Week 4, Mean (250 mg, ITT population): 0.61 ng/mL | sPLA2 level, Week 4, Median (250 mg, ITT population): 0.35 ng/mL | sPLA2 level, Week 4, Range (250 mg, ITT population): 0.05 to 2.30 ng/mL | sPLA2 Change from baseline at week 2, Mean [2]: -1.83 ng/mL | sPLA2 Change from baseline at week 2, Median [2]: -1.10 ng/mL | sPLA2 Change from baseline at week 2, Range [2]: -4.20 to -0.20 ng/mL | sPLA2 Change from baseline at week 4, Mean [2]: -1.75 ng/mL | sPLA2 Change from baseline at week 4, Median [2]: -1.25 ng/mL | sPLA2 Change from baseline at week 4, Range [2]: −4.20 to +0.20 ng/ml | sPLA2 level, Baseline, Mean [2]: 3.00 ng/mL | sPLA2 level, Baseline, Median [2]: 3.00 ng/mL | sPLA2 level, Baseline, Range [2]: 1.30 to 4.70 ng/mL | sPLA2 level, Week 2, Mean [2]: 0.60 ng/mL | sPLA2 level, Week 2, Median [2]: 0.50 ng/mL | sPLA2 level, Week 2, Range [2]: 0.20 to 1.10 ng/mL | sPLA2 level, Week 4, Mean [2]: 0.68 ng/mL | sPLA2 level, Week 4, Median [2]: 0.50 ng/mL | sPLA2 level, Week 4, Range [2]: 0.05 to 1.50 ng/mL | sPLA2 Change from baseline at week 2, Mean [3]: -2.08 ng/mL | sPLA2 Change from baseline at week 2, Median [3]: -2.00 ng/mL | sPLA2 Change from baseline at week 2, Range [3]: -3.80 to -0.80 ng/mL | sPLA2 Change from baseline at week 4, Mean [3]: -2.25 ng/mL | sPLA2 Change from baseline at week 4, Median [3]: -2.20 ng/mL | sPLA2 Change from baseline at week 4, Range [3]: -3.50 to -1.20 ng/mL | sPLA2 level, Baseline, Mean [3]: 2.84 ng/mL | sPLA2 level, Baseline, Median [3]: 2.40 ng/mL | sPLA2 level, Baseline, Range [3]: 1.50 to 5.20 ng/mL | sPLA2 level, Week 2, Mean [3]: 0.76 ng/mL | sPLA2 level, Week 2, Median [3]: 0.30 ng/mL | sPLA2 level, Week 2, Range [3]: 0.05 to 4.40 ng/mL | sPLA2 level, Week 4, Mean [3]: 0.60 ng/mL | sPLA2 level, Week 4, Median [3]: 0.30 ng/mL | sPLA2 level, Week 4, Range [3]: 0.05 to 2.30 ng/mL | sPLA2 Change from baseline at week 2, Mean [4]: -2.01 ng/mL | sPLA2 Change from baseline at week 2, Median [4]: -1.65 ng/mL | sPLA2 Change from baseline at week 2, Range [4]: -4.20 to -0.20 ng/mL | sPLA2 Change from baseline at week 4, Mean [4]: -2.13 ng/mL | sPLA2 Change from baseline at week 4, Median [4]: -2.15 ng/mL | sPLA2 Change from baseline at week 4, Range [4]: −4.20 to +0.20 ng/ml | sPLA2 level, Baseline, Mean [4]: 2.84 ng/mL | sPLA2 level, Baseline, Median [4]: 2.40 ng/mL | sPLA2 level, Baseline, Range [4]: 1.30 to 5.20 ng/mL | sPLA2 level, Week 2, Mean [4]: 0.68 ng/mL | sPLA2 level, Week 2, Median [4]: 0.30 ng/mL | sPLA2 level, Week 2, Range [4]: 0.05 to 4.40 ng/mL | sPLA2 level, Week 4, Mean [4]: 0.57 ng/mL | sPLA2 level, Week 4, Median [4]: 0.30 ng/mL | sPLA2 level, Week 4, Range [4]: 0.05 to 2.30 ng/mL | sPLA2 Change from baseline at week 2, Mean (500 mg, ITT population): -2.84 ng/mL | sPLA2 Change from baseline at week 2, Median (500 mg, ITT population): -2.95 ng/mL | sPLA2 Change from baseline at week 2, Range (500 mg, ITT population): -4.80 to -0.55 ng/mL | sPLA2 Change from baseline at week 4, Mean (500 mg, ITT population): -2.87 ng/mL | sPLA2 Change from baseline at week 4, Median (500 mg, ITT population): -2.95 ng/mL | sPLA2 Change from baseline at week 4, Range (500 mg, ITT population): -4.80 to -0.55 ng/mL | sPLA2 level, Baseline, Mean (500 mg, ITT population): 2.96 ng/mL | sPLA2 level, Baseline, Median (500 mg, ITT population): 2.80 ng/mL | sPLA2 level, Baseline, Range (500 mg, ITT population): 0.60 to 5.40 ng/mL | sPLA2 level, Week 2, Mean (500 mg, ITT population): 0.18 ng/mL | sPLA2 level, Week 2, Median (500 mg, ITT population): 0.05 ng/mL | sPLA2 level, Week 2, Range (500 mg, ITT population): 0.05 to 0.60 ng/mL | sPLA2 level, Week 4, Mean (500 mg, ITT population): 0.15 ng/mL | sPLA2 level, Week 4, Median (500 mg, ITT population): 0.05 ng/mL | sPLA2 level, Week 4, Range (500 mg, ITT population): 0.05 to 0.60 ng/mL | sPLA2 Change from baseline at week 2, Mean [5]: -3.75 ng/mL | sPLA2 Change from baseline at week 2, Median [5]: -3.50 ng/mL | sPLA2 Change from baseline at week 2, Range [5]: -4.80 to -2.95 ng/mL | sPLA2 Change from baseline at week 4, Mean [5]: -3.82 ng/mL | sPLA2 Change from baseline at week 4, Median [5]: -3.70 ng/mL | sPLA2 Change from baseline at week 4, Range [5]: -4.80 to -2.95 ng/mL | sPLA2 level, Baseline, Mean [5]: 3.73 ng/mL | sPLA2 level, Baseline, Median [5]: 3.40 ng/mL | sPLA2 level, Baseline, Range [5]: 2.70 to 5.40 ng/mL | sPLA2 level, Week 2, Mean [5]: 0.32 ng/mL | sPLA2 level, Week 2, Median [5]: 0.30 ng/mL | sPLA2 level, Week 2, Range [5]: 0.05 to 0.60 ng/mL | sPLA2 level, Week 4, Mean [5]: 0.25 ng/mL | sPLA2 level, Week 4, Median [5]: 0.10 ng/mL | sPLA2 level, Week 4, Range [5]: 0.05 to 0.60 ng/mL | sPLA2 Change from baseline at week 2, Mean [6]: -2.61 ng/mL | sPLA2 Change from baseline at week 2, Median [6]: -2.68 ng/mL | sPLA2 Change from baseline at week 2, Range [6]: -4.40 to -0.55 ng/mL | sPLA2 Change from baseline at week 4, Mean [6]: -2.63 ng/mL | sPLA2 Change from baseline at week 4, Median [6]: -2.53 ng/mL | sPLA2 Change from baseline at week 4, Range [6]: -4.35 to -0.55 ng/mL | sPLA2 level, Baseline, Mean [6]: 2.73 ng/mL | sPLA2 level, Baseline, Median [6]: 2.70 ng/mL | sPLA2 level, Baseline, Range [6]: 0.60 to 4.60 ng/mL | sPLA2 level, Week 2, Mean [6]: 0.15 ng/mL | sPLA2 level, Week 2, Median [6]: 0.05 ng/mL
